Results on five compounds are retold here after US9932589B2, “EML4-ALK fusion gene” (Astellas Pharma Inc., priority 2006, dated 2018).

Test [1] deals with EML4-ALK fusion polypeptide v1. Description: in vitro kinase activity (autophosphorylation) of purified EML4-ALK fusion polypeptide v1, immunoblotting with anti-phosphorylated ALK antibody. It is filed as biochemical, human. As to the method: (§1) The v1 expressing BA/F3 cells (Example 5(1)) were cultured in RPM1640 medium containing 10% of fetal bovine scrum to obtain 2.7×10^9 cells. After washing 3 times with PBS, cells were lysed in a lysis solution (50 mM Tris HCl (pH7.4), 150 mM NaCl, 1% Triton×100, 5 mM EDTA, 5 mM EGTA, 1 mM NaVO4, 1 mM DTT and protease inhibitor cocktail complete). The EML4-ALK fusion polypeptide v1 present in the supernatant obtained after a centrifugation was purified using ANTI-FLAG M2 Affinity Gel (SIGMA-ALDRICH Inc) according to the method described in the product information document. For washing and elution, the washing solution (50 mM Tris.HCl (pH7.4), 250 mM NaCl, 0.05% Brij35, 1 mM EDTA, 1 mM EGTA, 1 mM NaVO4, 1 mM DTT, complete) and the elution solution (50 mM Tris.HCl (pH7.4), 150 mM NaCl, 0.05% Brij35, 1 mM DTT, 0.5 mg/mL FLAG peptide) were used, respectively. Immunoblotting using anti-ALK antibody and anti FLAG M2 antibody (SIGMA-ALDRICH Inc.) and silver staining were carried out for the eluate to detect the EML4-ALK fusion polypeptide v1.
The EML4-ALK fusion polypeptide v1 purified as described above was diluted in a reaction solution (15 mM Tris HCl (pH7.4), 0.25 mM MgCl2, 0.01% Tween-20, 2 mM DTT), and then ATP was not added or ATP 20 μM was added. The respective mixtures were reacted at room temperature for 1 hour. After the reaction, the auto phosphorylated EML4-ALK fusion polypeptide v1 and the EML4-ALK fusion polypeptide v1 were detected by immunoblotting using anti-phosphorylated ALK antibody, which recognizes specifically the product phosphorylated at the 1604th tyrosine residue of ALK, and anti-ALK antibody, and quantitated by an image analysis system (VersaDoc Imaging System; Bio-Rad Inc.). The amount of phosphorylation was calibrated by dividing the count of the autophosphorylated EML4-ALK fusion polypeptide v1 by the count of the EML4-ALK fusion polypeptide v1. As the result, the autophosphorylated EML4-ALK fusion polypeptide v1 band was detected at the location of about 130 kDa under the condition of ATP addition, and the amount of phosphorylation was increased by about 205 folds compared to no-ATP addition.
(§2) The inhibitory effect of compound A-D against the in vitro kinase activity of the EML4-ALK fusion polypeptide v1 was investigated using anti-phosphorylated ALK antibody and the kinase activity detection kit. Respective compounds were added to the reaction solution containing the EML4-ALK fusion polypeptide v1 at a final concentration of 10 μM or 10 nM, and then the reaction was carried out with or without the addition of ATP. The rest of the operations were carried out according to the method (2) described above. […] The inhibition (%) of the kinase activity of the EML4-ALK fusion polypeptide v1 by a compound was calculated by the following formula. […]

The test system of test [2] is EML4-ALK fusion polypeptide v1. In words: in vitro phosphorylation of peptide substrate (TK substrate 1) by EML4-ALK fusion polypeptide v1, HTRF KinEASE-TK kit. It is filed as biochemical, human. As to the method: as §1
In addition, the phosphorylation activity toward a peptide substrate was investigated using a kinase activity detection kit (HTRF KinEASE-TK; Cisbio Inc.). Using TK substrate 1, which was included in the kit, as the substrate, and after adding no ATP or 100 μM ATP, the mixtures were reacted at room temperature for 1 hour, and the count of HTRF was detected as recommended by the Kits manufacturer. As the result it became clear that the count of HTRF (that is, phosphorylation of the peptide substrate) was increased by about 12 times by the addition of ATP compare to no addition of ATP. As shown above, the in vitro kinase activity of the EML4-ALK fusion polypeptide v1 can be detected using anti-phosphorylated ALK antibody and the kinase activity detection kit.
as §2

Test [3] deals with EML4-ALK fusion polypeptide v1. In words: intracellular autophosphorylation of EML4-ALK fusion polypeptide v1 in v1 expressing BA/F3 cells. It is filed as cell-based, human. To be noted: for Inhibition on autophosphorylation (BA/F3cells): 6 hours. As for the experimental part: Compound A (1 μM, 5 μM and 10 μM) was added to the culture medium of v1 expressing BA/F3 cells (Example 5(1)) or not added, and cultured for 3 hours. In addition, BA/F3 cells expressing FLAG-EML4-ALKv1(K589M) were produced using pMX-iresCD8 vector in which EML4-ALK (K589M) was integrated so that FLAG can be added, and cultured. After culturing, cells were counted and the level of phosphorylation of tyrosine of EML4-ALK fusion polypeptide v1 was measured by immunoblotting using anti-phosphorylated ALK antibody. Further, for the same transfer membrane, immunoblotting analysis by anti-FLAG tag antibody (Eastman Kodak Inc.) was carried out, and total protein quantity of the FLAG attached EML4-ALK fusion polypeptide v1 was measured.
However, the culturing time after the addition of the compounds was 6 hours, and the total protein amount of the EML4-ALK fusion polypeptide v1 was measured using anti-ALK antibody. In addition, the amount of phosphorylation was calculated by quantitating as in Example 7(2). Also, for compound A, the amount of phosphorylation was calculated by quantitating in experiment under this condition. The rate of inhibition was calculated from the amount of phosphorylation when the compound was added, using the value when the compound was not added (the solvent of the compound, DMSO was added) as a control (0% inhibition).

The target of test [4] is T1, EML4-ALK fusion polypeptide v1 (Homo sapiens, UniProt Q9UM73, D1529E/I1461V/K1491R).
T1 construct: expressed in transfected cells; host or cells: mouse 3T3 fibroblasts transfected with EML4-ALKv1/pMXS (v1 expressing 3T3 cells); for A10, grown as a subcutaneous tumour in nude mice
Description: intracellular autophosphorylation of EML4-ALK fusion polypeptide v1 in v1 expressing 3T3 cells. It counts as cell-based. To be noted: 4 hours.

A further test relates to v1 expressing 3T3 cells. Description: anchorage independent growth on spheroid plate, v1 expressing 3T3 cells. It is filed as cell-based, mouse. As for the experimental part:
(§3) The v1 expressing 3T3 cells (Example 6(1)) and one of the human glioma cells expressing the full length ALK polypeptide and not expressing EML4-ALK fusion polynucleotide endogenously, U-87 MG cells, were seeded to a 96 well spheroid plate (Sumilon Celltight Spheroid 96U, Sumitomo Bakelite Inc.) at 3000 cells per well in a medium containing 10% fetal bovine serum (DMEM for v1 expressing 3T3 cells and RPMI 1640 for U-87MG). […] At the same time, cells were counted before the addition of drugs (Day 0). Then, cells were cultured under 5% CO2, at 37° C. for 3 days, mixed with a reagent for measuring cell number (CellTiter-Glo™ Luminescent Cell Viability Assay; Promega Inc.) stirred for 20 minutes, and the measurements (day 3) were carried out using a luminometer (ML3000 microtiter plate luminometer; Dynatech Laboratories Inc.).

In another test the test system is U-87MG cells. Description: anchorage independent growth on spheroid plate, U-87MG cells expressing full length ALK. It is filed as cell-based, human. The note with it: 3 days; for inhibition at 0.01 µM: final concentration 10 nM. As for the experimental part: as §3
Test [5] concerns the target T2, EML4-ALK fusion polypeptide v2 (Homo sapiens, UniProt Q9UM73, D1529E/I1461V/K1491R).
T2 construct: expressed in transfected cells; host or cells: 293EBNA cells (Invitrogen) transfected with FLAG-EML4-ALKv2/pcDNA3
In words: intracellular autophosphorylation of EML4-ALK fusion polypeptide v2 in 293EBNA cells. It counts as cell-based. To be noted: final concentration 10 nM, 4 hours.

Test [6] relates to v1 expressing 3T3 cells (tumor). Description: anti-tumor test against v1 expressing 3T3 cells inoculated subcutaneously in nude mice. It is filed as in vivo, mouse. To be noted: once a day for 10 days, start 6 days after inoculation, otherwise similar procedure. As for the experimental part:
Administrations were performed once a day for 14 days, and body weight and tumor size were measured every other day. Tumor volume was calculated using the following formula. […] The administration of the compound D was started after 6 days of the inoculation and carried out once a day for 10 days, and then the tumor size was measured.

The next test concerns the target T3, NPM-ALK (Homo sapiens, UniProt Q9UM73).
T3 construct: the other entry of the earlier key: NPM1 (P06748, Nucleophosmin)
To be noted: Non-Patent Document 22; cited from earlier work.

Test [7] deals with CD8 expressing BA/F3 cells. In words: growth of CD8 expressing BA/F3 cells in the presence of IL-3. It counts as cell-based, mouse. The note with it: 1 μM, 5 μM or 10 μM.
The test system of test [8] is v1 expressing BA/F3 cells. Description: growth of v1 expressing BA/F3 cells in the absence of IL-3. To be noted: 1 μM, 5 μM or 10 μM. It is filed as cell-based, mouse. As for the experimental part: Next, compound A, which is a substance that inhibits the EML4-ALK fusion polypeptide v1, was added to BA/F3 cells which obtained the IL-3 independent growth potential by expressing the EML4-ALK fusion polypeptide v1, and its effect on cell growth was investigated. […] That is, it was confirmed that cells, growing dependently on the EML4-ALK fusion polynucleotide (oncogene), were killed by an inhibitor of the EML4-ALK fusion polypeptide v1.

The mark [9] stands for this setting: Mus musculus, NIH3T3, read-out: inhibition rate of anchorage independent growth, v1 expressing 3T3 cells.
Setting [10] is: Homo sapiens, U-87 MG, 72 h, read-out: inhibition rate of anchorage independent growth, U-87MG cell.

T1 sequence (Q9UM73 with tags, fused parts or gaps I1461V/K1491R/D1529E): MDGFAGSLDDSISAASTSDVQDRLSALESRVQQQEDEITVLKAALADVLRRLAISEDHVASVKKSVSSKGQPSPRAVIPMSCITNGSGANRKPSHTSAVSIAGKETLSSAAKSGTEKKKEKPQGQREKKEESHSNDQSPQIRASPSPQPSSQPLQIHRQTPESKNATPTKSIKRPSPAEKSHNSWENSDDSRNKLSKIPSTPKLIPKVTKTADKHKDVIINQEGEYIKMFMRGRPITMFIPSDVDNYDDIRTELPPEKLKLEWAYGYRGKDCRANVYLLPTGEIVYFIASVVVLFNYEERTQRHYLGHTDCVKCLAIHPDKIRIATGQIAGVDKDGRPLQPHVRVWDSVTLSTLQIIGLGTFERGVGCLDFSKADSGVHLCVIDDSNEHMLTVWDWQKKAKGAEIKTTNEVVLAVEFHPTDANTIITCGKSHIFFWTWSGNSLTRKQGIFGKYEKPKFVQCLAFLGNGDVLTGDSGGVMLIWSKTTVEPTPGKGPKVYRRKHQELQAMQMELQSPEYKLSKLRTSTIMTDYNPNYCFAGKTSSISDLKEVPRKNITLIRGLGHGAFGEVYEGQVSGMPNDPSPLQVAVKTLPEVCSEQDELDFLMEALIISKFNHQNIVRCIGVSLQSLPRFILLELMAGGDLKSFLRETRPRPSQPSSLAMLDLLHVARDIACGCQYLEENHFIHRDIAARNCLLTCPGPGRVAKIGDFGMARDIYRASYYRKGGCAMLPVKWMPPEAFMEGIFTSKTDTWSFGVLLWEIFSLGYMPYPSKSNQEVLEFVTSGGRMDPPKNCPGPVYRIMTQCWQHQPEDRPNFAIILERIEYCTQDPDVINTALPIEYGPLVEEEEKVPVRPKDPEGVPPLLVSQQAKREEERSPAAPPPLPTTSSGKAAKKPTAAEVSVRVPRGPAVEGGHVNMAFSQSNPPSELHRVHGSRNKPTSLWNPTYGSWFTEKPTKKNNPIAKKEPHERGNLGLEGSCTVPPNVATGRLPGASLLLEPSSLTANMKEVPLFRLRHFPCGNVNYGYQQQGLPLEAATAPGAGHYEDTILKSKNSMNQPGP
T3 sequence (Q9UM73 with tags, fused parts or gaps): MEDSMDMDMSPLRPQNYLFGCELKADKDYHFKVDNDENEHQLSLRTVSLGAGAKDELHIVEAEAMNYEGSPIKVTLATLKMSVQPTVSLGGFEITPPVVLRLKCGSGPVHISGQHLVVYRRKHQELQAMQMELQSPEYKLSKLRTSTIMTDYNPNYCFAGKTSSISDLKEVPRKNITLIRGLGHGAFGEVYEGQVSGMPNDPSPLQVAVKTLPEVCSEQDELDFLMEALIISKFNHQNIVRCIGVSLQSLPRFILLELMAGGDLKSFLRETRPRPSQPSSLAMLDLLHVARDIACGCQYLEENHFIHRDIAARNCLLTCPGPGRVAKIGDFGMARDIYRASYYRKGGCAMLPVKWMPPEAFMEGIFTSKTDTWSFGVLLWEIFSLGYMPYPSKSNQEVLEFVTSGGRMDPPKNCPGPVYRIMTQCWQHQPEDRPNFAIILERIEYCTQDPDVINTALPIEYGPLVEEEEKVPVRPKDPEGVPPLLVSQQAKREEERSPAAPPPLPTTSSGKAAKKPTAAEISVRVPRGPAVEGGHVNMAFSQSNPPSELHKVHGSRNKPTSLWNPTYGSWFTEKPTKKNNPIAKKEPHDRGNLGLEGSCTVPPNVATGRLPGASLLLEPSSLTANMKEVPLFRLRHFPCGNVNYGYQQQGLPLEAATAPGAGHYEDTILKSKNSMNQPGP
T2 sequence (Q9UM73 with tags, fused parts or gaps I1461V/K1491R/D1529E): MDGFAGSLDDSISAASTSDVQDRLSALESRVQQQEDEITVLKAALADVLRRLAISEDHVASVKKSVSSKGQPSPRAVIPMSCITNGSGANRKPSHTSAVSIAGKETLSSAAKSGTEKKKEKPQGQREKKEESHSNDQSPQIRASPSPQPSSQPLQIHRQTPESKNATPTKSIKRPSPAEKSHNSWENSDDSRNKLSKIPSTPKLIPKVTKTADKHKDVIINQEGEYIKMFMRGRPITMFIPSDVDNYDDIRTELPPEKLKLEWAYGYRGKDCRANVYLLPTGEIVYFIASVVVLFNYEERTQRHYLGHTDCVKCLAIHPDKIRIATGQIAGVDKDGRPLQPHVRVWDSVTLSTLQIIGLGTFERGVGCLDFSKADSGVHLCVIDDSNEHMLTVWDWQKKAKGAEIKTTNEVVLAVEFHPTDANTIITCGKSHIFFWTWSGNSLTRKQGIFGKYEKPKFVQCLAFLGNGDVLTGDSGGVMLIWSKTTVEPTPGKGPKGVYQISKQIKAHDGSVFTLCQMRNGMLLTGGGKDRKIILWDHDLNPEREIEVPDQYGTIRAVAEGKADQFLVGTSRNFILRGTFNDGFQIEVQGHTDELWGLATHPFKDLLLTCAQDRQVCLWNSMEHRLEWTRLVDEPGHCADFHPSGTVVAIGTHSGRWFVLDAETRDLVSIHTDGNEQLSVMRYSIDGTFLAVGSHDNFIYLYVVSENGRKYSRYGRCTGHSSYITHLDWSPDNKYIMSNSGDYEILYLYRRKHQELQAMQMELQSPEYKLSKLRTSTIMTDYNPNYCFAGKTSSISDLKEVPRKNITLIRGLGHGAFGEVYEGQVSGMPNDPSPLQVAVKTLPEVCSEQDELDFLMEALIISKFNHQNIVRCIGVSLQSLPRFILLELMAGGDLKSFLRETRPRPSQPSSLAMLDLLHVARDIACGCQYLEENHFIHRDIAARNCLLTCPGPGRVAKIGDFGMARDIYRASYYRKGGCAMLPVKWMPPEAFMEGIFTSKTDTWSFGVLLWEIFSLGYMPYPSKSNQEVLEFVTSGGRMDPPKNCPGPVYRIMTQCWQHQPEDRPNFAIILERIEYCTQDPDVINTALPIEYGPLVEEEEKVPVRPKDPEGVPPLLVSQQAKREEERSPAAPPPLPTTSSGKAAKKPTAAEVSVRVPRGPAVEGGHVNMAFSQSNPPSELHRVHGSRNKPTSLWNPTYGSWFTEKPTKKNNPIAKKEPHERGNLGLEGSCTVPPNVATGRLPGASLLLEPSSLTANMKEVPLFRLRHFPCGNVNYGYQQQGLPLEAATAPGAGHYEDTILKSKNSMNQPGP

As for `O=C(COc1ccc(OC(F)(F)F)cc1)NCc1nc(C(=O)NCCc2cccc(Cl)c2)cs1` [compound B, N-[2-(3-chlorophenyl)ethyl]-2-[({[4-(trifluoromethoxy)phenoxy]acetyl}amino)methyl]-1,3-thiazole-4-carboxamide], the Inhibition on autophosphorylation in [1] (final concentration 10 μM) is 68%. Also, the “Inhibition on peptide substrate” value in test [2] (final concentration 10 μM) worked out at 56%. In addition, the “Inhibition on autophosphorylation (BA/F3cells)” value (shortened to “Inhibition … (BA/F3cells)”) in test [3] (final concentration 10 μM) is listed as 77%. The inhibition at 10 µM in test [4] (NIH3T3, final concentration 10 μM, read-out: Inhibition on autophosphorylation (3T3cells)) was determined as 49%; with v1 expressing 3T3 cells (setting [9]), 91%; with U-87MG cells (Homo sapiens, U-87 MG, 72 h, final concentration 10 μM, read-out: inhibition rate of anchorage independent growth, U-87MG cell), 34%.

On to `COc1cc(N2CCC(N3CCN(C)CC3)CC2)ccc1Nc1ncc(Cl)c(Nc2ccccc2S(=O)(=O)C(C)C)n1` [compound C, 5-chloro-N^4-[2-(isopropylsulfonyl)phenyl]-N^2-{2-methoxy-4-[4-(4-methylpiperazin-1-yl)piperidin-1-yl]phenyl}pyrimidine-2,4-diamine], for which the Inhibition on autophosphorylation in test [1] (final concentration 10 nM) worked out at 102%. Also, in test [2] (final concentration 10 nM), the “Inhibition on peptide substrate” value is reported as 99%. The “Inhibition … (BA/F3cells)” value in test [3] (final concentration 10 nM) came to 84%. Also, the inhibition at 0.01 µM is 131% with v1 expressing 3T3 cells (setting [9]) and -2% in the test on U-87MG cells (setting [10]).

As for `CNS(=O)(=O)c1ccccc1Nc1nc(Nc2ccc(N3CCN(C)CC3)cc2OC)ncc1Br` [compound D, 2-[(5-bromo-2-{[2-methoxy-4-(4-methylpiperazin-1-yl)phenyl]amino}pyrimidin-4-yl)amino]-N-methylbenzenesulfonamide], the inhibition at 0.01 µM in test [5] is 95%; in test [4] (NIH3T3, final concentration 10 nM, read-out: Inhibition on autophosphorylation (3T3cells)), 86%; in the test on v1 expressing 3T3 cells (setting [9]), 135%; in the test on U-87MG cells (setting [10]), -2%. In addition, in test [1] (final concentration 10 nM), the Inhibition on autophosphorylation is listed as 96%. Moreover, the “Inhibition on peptide substrate” value in [2] (final concentration 10 nM) is given as 99%. Further, the “Inhibition … (BA/F3cells)” value in test [3] (final concentration 10 nM) was found to be 90%. Besides, in test [6], the “inhibition of growth of v1 expressing 3T3 cells (tumor), tumor volume” value is listed as 101%.

Turning to `COc1cc2ncnc(Nc3ccc(O)cc3)c2cc1OC` [WHI-P131, 4-(4′-Hydroxyphenyl)amino-6,7-dimethoxyquinazo line], the “activity of NPM-ALK” value on NPM-ALK was “inhibit the activity of NPM-ALK”.

For the compound `COc1cc2ncnc(Nc3ccc(O)c(Br)c3)c2cc1OC` [compound A, 4-[(3′-Bromo-4′-hydroxyphenyl)amino]-6,7-dimethoxyquinazoline], in [1] (final concentration 10 μM), the Inhibition on autophosphorylation was 104%. For the same compound, the “Inhibition on peptide substrate” value in test [2] (final concentration 10 μM) is 99%. In addition, the “intracellular autophosphorylation of the EML4-ALK fusion polypeptide v1 (FIG. 4)” value in test [3] (1 μM, 5 μM and 10 μM, 3 hours) is on record as “inhibits the intracellular autophosphorylation of the EML4-ALK fusion polypeptide v1 in a concentration-dependent manner”. Moreover, in test [3] (final concentration 10 μM), the “Inhibition … (BA/F3cells)” value is recorded as 74%. The “Inhibition on autophosphorylation (3T3cells)” value in test [4] (final concentration 10 μM) amounted to 82%. In addition, in test [7], the “cell growth of CD8 expressing BA/F3 cells (FIG. 6(a))” value is “a slight growth inhibition was observed”. Further, the “inhibition rate of anchorage independent growth, v1 expressing 3T3 cells” value in the test on v1 expressing 3T3 cells (final concentration 10 μM, 3 days, Day 0 = 100%, Day 3 = 0% inhibition) was determined as 106%. Moreover, at NPM-ALK, the “activity of NPM-ALK” value is on record as “inhibit the activity of NPM-ALK”. Further, in [8], the “cell growth of v1 expressing BA/F3 cells (FIG. 6(b))” value was “the cell growth was markedly inhibited by concentration-dependence of compound A and cell death was induced”. Further, the “inhibition rate of anchorage independent growth, U-87MG cell” value in the test on U-87MG cells (final concentration 10 μM) was 15%.
